Patent US9096581B2, “Fluoroethyl thiamine or salts thereof and application thereof in preparation of anticoccidial drugs” (GUANGZHOU ORIGMOL FEED-ADDITIVE CO., LTD, priority 2012, dated 2015)
“Also recorded” adds a separate entry of the source. Counter-ions that a name gives are not always drawn.

Columns and labels:
Type in all cases: in vivo
[1] = test system: Eimeria necatrix GD strains; assay: Anticoccidial effect on Eimeria necatrix in chickens (Embodiment 7); conditions: 125 ppm in feed; for average weight gain / number of oocysts in feces: 7th day after infecting; for survival rate: chickens; for relative decrement rate of oocysts: vs infected non-drug control; for relative weight gain rate: vs non-infected non-drug control
Source text: (§1) 1-day-old Lingnan yellow chickens, purchased from Poultry Research Unit, Bureau of Animal Husbandry, Guangdong Academy of Agricultural Sciences, bred under coccidium-free environment, and subjected to grouping and experiment after no coccidium oocyst is found in feces through microscopic examination when the chickens are 14 days old.
Eimeria necatrix GD strains, having no resistance to various anticoccidial drugs. Breeding and amplifying in chickens before the experiment, collecting fresh oocysts, sporulating, and preserving at 4° C. for later use.
(§2) Weighing the 14-day-old experiment chickens one by one, rejecting emaciated chickens or overweighted chickens, selecting healthy chickens of which the individual body weight difference is within 20 g, and dividing to 4 groups with 30 chickens in each group. Groups 1 and 2 are respectively a non-drug-applied and non-coccidium-killed control group and a coccidium-infected and non-drug-applied control group, and Groups 3 and 4 are added with fluoroethyl thiamine hydrochloride or amprolium according to Table 12. Feeding with feed containing different drugs on the day of experiment grouping, enabling the chickens to freely take in the feed, and feeding the chickens until the experiment ends.
(§3) Except the non-coccidium-infected and non-drug-applied control group, giving each experiment chicken in each experiment group with 1×10^5 eimeria necatrix sporulated oocysts via the crop on the next day of the grouping day. During experiment, observing and recording the spirit, appetite, bloody feces situation, death count and the like of the chickens every day. On the 7th day after infecting, respectively weighing each group, calculating the relative weight gain rate, simultaneously collecting feces samples, and counting the number of oocysts per gram of feces.
(§4) The anticoccidial effect evaluation is the same with Embodiment 5.

Eimeria acervulina HT = assay: Anticoccidial effect on Eimeria acervulina in chickens (Embodiment 5); conditions: 125 ppm in feed; for average weight gain / number of oocysts in feces: 7th day after infecting; for survival rate: chickens; for relative decrement rate of oocysts: vs infected non-drug control; for relative weight gain rate: vs non-infected non-drug control
Source text: as §1
Eimeria acervulina HT, having no resistance to various anticoccidial drugs. Breeding and amplifying in chickens before the experiment, collecting fresh eggs, sporulating, and preserving at 4° C. for later use.
as §2, with “chicks,” for “chickens,”, “8.” for “12.”
as §3, with “5×10^5” for “1×10^5”, “acervulina” for “necatrix”
2.3.1 Weight gain: respectively weighing each chicken when the experiment starts and ends, and calculating the average weight gain and relative weight gain rate. The relative weight gain rate=(the average weight gain in the experiment groups/the average weight gain in the non-infected and non-drug-applied control group)×100%.
2.3.2 Survival rate: recording the number of dead chickens of each group, autopsying to determine the death cause, and calculating the survival rate. The survival rate=(the total number of the chickens in the experiment groups−the number of the chickens dying of coccidium infection during the experiment)/the total number of the chickens in the experiment groups×100%.
2.3.3 oocyst counting and relative decrement rate of oocysts: on the 7th day after coccidium infection, digesting the collected fresh feces with 10% sodium hypochlorite for 15 min, counting the number of the coccidium oocysts per gram of feces through a blood counting chamber, and calculating the relative decrement rate of the oocysts in the feces of each experiment group. The relative decrement rate of oocysts=(the number of the oocysts per gram of feces in the coccidium-killed and non-drug-applied control group−the number of the oocysts per gram of feces in the experiment groups)/the number of the oocysts per gram of feces in the coccidium-killed and non-drug-applied control group×100%.

[2] = test system: Eimeria maxima PY strains; assay: Anticoccidial effect on Eimeria maxima in chickens (Embodiment 6); conditions: 125 ppm in feed; for average weight gain / number of oocysts in feces: 7th day after infecting; for survival rate: chickens; for relative decrement rate of oocysts: vs infected non-drug control; for relative weight gain rate: vs non-infected non-drug control
Source text: as §1
Eimeria maxima PY strains, having no resistance to various anticoccidial drugs. Breeding and amplifying in chickens before the experiment, collecting fresh oocysts, sporulating, and preserving at 4° C. for later use.
as §2, with “10.” for “12.”, “in” for “in the”
as §3, with “3×10^5” for “1×10^5”, “maxima” for “necatrix”
as §4

[3] = test system: Eimeria tenella JM strains (amprolium-resistant); assay: Effect on amprolium-resistant coccidium strain in chickens (Embodiment 4); conditions: 125 ppm in feed; for number of oocysts in cecum / lesion value / the average weight gain: 7th day; for lesion value: cecum, scale 0-40; for survival rate / the average weight gain / bloody feces scoring: chickens; for bloody feces scoring: 5 days after infecting, score 0-4; for oocyst value: converted per Table 2; for relative weight gain rate: vs non-infected non-drug control
Procedure: as §1
Eimeria tenella JM strains, separated and purified from a chicken farm in Jiangmen, Guangdong, which are tested and identified to be amprolium-resistant coccidium strains. Breeding and amplifying in chickens before the experiment, collecting fresh eggs, sporulating, and preserving at 4° C. for later use.
as §2, with “and dividing into 4 groups” for “and dividing to 4 groups”, “4 are respectively added with” for “4 are added with”, “thiamine hydrochloride and amprolium. Feeding with” for “thiamine hydrochloride or amprolium according to Table 12. Feeding with”, “of experiment grouping according to Table 6, enabling the” for “of experiment grouping, enabling the”
Except the non-coccidium-infected and non-drug-applied control group, giving each experiment chicken in each experiment group with 1.0×10^5 eimeria tenella sporulated oocysts via the crop on the next day of the grouping day. During experiment, observing and recording the spirit, appetite, bloody feces situation, death count and the like of the chickens every day. Performing bloody feces scoring on the chickens in each group 5 days after infecting. On the 7th day, respectively weighing all the chickens in each group, then autopsying them, observing cecum lesions and counting the oocysts in the cecum.
The evaluation standard is the same with Embodiment 2.

Structure (SMILES) | average weight gain [1] | number of oocysts in feces [1] | survival rate [1] | relative decrement rate of oocysts [1] | relative weight gain rate [1] | average weight gain (Eimeria acervulina HT) | number of oocysts in feces (Eimeria acervulina HT) | survival rate (Eimeria acervulina HT) | relative decrement rate of oocysts (Eimeria acervulina HT) | relative weight gain rate (Eimeria acervulina HT) | average weight gain [2] | number of oocysts in feces [2] | survival rate [2] | relative decrement rate of oocysts [2] | relative weight gain rate [2] | anticoccidial index (ACI) [3] | effect on amprolium-resistant strain, in words [3] | number of oocysts in cecum [3] | lesion value [3] | survival rate [3] | other results
CCCc1ncc(C[n+]2ccccc2C)c(N)n1 [amprolium, Amprolium, reference compound] | 159.9 g | 3600 g⁻¹ | 100% | 73.3% | 86.2% | 166.6 g | 29800 g⁻¹ | 100% | 88.8% | 86.4% | 167.4 g | 8600 g⁻¹ | 100% | 79.5% | 93.1% | 93.5 | eimeria tenella JM strain has resistance to amprolium | 2.878 ×10^6/chicken | 28.4 | 60% | the average weight gain [3]: 135.6 g/chicken; bloody feces scoring [3]: 4; oocyst value [3]: 10; relative weight gain rate [3]: 71.9%
CCc1ncc(C[n+]2csc(CCF)c2C)c(N)n1 [fluoroethyl thiamine hydrochloride, 3-[(4-amino-2-ethyl-5-pyrimidyl)-methylene]-5-(2-fluoroethyl)-4-methyl thiazole chloride hydrochloride] | 172.5 g | 1900 g⁻¹ | 100% | 85.9% | 92.9% | 186.5 g | 6500 g⁻¹ | 100% | 97.6% | 96.7% | 176.3 g | 3700 g⁻¹ | 100% | 91.2% | 98.0% | 196.8 | can protect the experiment chickens from being infected by the strains | 0 ×10^6/chicken | 0 | 100% | inhibition of eimeria necatrix, in words ([1]; hydrochloride): can effectively control infection of the eimeria necatrix; also recorded: superior to amprolium in eimeria necatrix inhibition; inhibition of eimeria acervulina, in words (Eimeria acervulina HT; hydrochloride): significant inhibition effect on the eimeria acervulina; also recorded: superior to amprolium in eimeria acervulina inhibition; inhibition of eimeria maxima, in words ([2]; hydrochloride): significant inhibition effect on eimeria maxima; also recorded: superior to amprolium in eimeria maxima inhibition; the average weight gain [3]: 182.7 g/chicken; bloody feces scoring [3]: 0; oocyst value [3]: 0; relative weight gain rate [3]: 96.8%
